Assay results published in US20250120932A1, “PHARMACEUTICAL COMPOSITION” (NEUROPRO THERAPEUTICS, INC., priority 2021, published 2025).

Assay: Pharmacokinetic study in cynomolgus monkeys after oral (nasogastric) gavage, sublingual and intravenous administration
Assay type: in vivo
Conditions: cynomolgus monkey, plasma, Plasma Bumetanide Dibenzylamide concentration, monkey; for concentration at 0.5 h: 0.50 h
Procedure: A pharmacokinetic study was done in cynomolgus monkeys following single oral (nasogastric) gavage, sublingual, and intravenous administration. […] Calibration curves, blanks, and analytical QCs were prepared in monkey plasma (K2EDTA). The extracts were evaporated to dryness, reconstituted, and then analyzed by LC-MS/MS. The calibration range was 0.250-250 ng/mL for both analytes.
If the criteria for either the calibration curve or the analytical QCs were not met, the analytical run was rejected. […] No deviations were found during the bioanalytical phase of the study conducted by Origin. Calibration curves were derived from the individual analyte to internal standard peak area ratios using the least squared regression of the ratio versus the nominal concentration of the calibration standard, prepared in duplicate. The regression was then used to back-calculate the concentration of each calibration standard, QC sample and study sample. […] Analyst® Software Version 1.6.3 (Applied Biosystems-MDS Sciex), operated with Windows® (Microsoft), was used for instrument control, data acquisition, and peak integrations. Peak area ratios, standard curve regressions, and sample concentration/accuracy values were calculated with Analyst® Software Version 1.6.3. Other results (e.g., mean statistics) were calculated with Excel® (Microsoft).
There was no apparent sex difference for the second formulation. […] A fourth formulation comprising the composition B listed in Table 54 was also administered in monheys.

[1] = both sexes, oral, 30 mg/kg, Mean, NG 30 mg/kg, First Formulation (Form 1), N=4
[2] = both sexes, oral, 30 mg/kg, Mean, NG 30 mg/kg, Second Formulation (Form 3), N=4
[3] = both sexes, oral, 30 mg/kg, Median, NG 30 mg/kg, First Formulation (Form 1), N=4
[4] = both sexes, oral, 30 mg/kg, Median, NG 30 mg/kg, Second Formulation (Form 3), N=4
[5] = intravenous, 2 mg/kg, Mean, dose column 2 mg/kg (title 30 mg/kg), Third Formulation (Form 4), N=4
[6] = intravenous, 2 mg/kg, dose column 2 mg/kg (title 30 mg/kg), Third Formulation (Form 4), individual animals
[7] = other: sublingual, 5 mg/kg, Mean, SL, dose column 5 mg/kg (title 30 mg/kg), Fourth Formulation (Form 2), N=4
[8] = other: sublingual, 5 mg/kg, Median, SL, dose column 5 mg/kg (title 30 mg/kg), Fourth Formulation (Form 2), N=4

Compound: CCCCNc1cc(C(=O)N(Cc2ccccc2)Cc2ccccc2)cc(S(N)(=O)=O)c1Oc1ccccc1 [Bumetanide Dibenzylamide, N, N-dibenzyl 3-aminosulfonyl-5-butylamino-4-phenoxybenzamide]
- concentration at 0 h [1]: 0 ng/mL
- concentration at 0.25 h [1]: 4.31 ng/mL
- concentration at 0.5 h [1]: 5.9 ng/mL
- concentration at 1 h (both sexes, oral, 30 mg/kg, Mean, NG 30 mg/kg, First Formulation (Form 1), 1.00 h, N=4): 13.2 ng/mL
- concentration at 2 h (both sexes, oral, 30 mg/kg, Mean, NG 30 mg/kg, First Formulation (Form 1), 2.00 h, N=4): 62.6 ng/mL
- concentration at 4 h (both sexes, oral, 30 mg/kg, Mean, NG 30 mg/kg, First Formulation (Form 1), 4.00 h, N=4): 66.8 ng/mL
- concentration at 8 h (both sexes, oral, 30 mg/kg, Mean, NG 30 mg/kg, First Formulation (Form 1), 8.00 h, N=4): 44.9 ng/mL
- concentration at 24 h (both sexes, oral, 30 mg/kg, Mean, NG 30 mg/kg, First Formulation (Form 1), 24.00 h, N=4): 8.59 ng/mL
- concentration at 32 h (both sexes, oral, 30 mg/kg, Mean, NG 30 mg/kg, First Formulation (Form 1), 32.00 h, N=4): 4.51 ng/mL
- concentration at 0 h [2]: 0 ng/mL
- concentration at 0.25 h [2]: 0.283 ng/mL
- concentration at 0.5 h [2]: 2.85 ng/mL
- concentration at 1 h (both sexes, oral, 30 mg/kg, Mean, NG 30 mg/kg, Second Formulation (Form 3), 1.00 h, N=4): 11.5 ng/mL
- concentration at 2 h (both sexes, oral, 30 mg/kg, Mean, NG 30 mg/kg, Second Formulation (Form 3), 2.00 h, N=4): 54.1 ng/mL
- concentration at 4 h (both sexes, oral, 30 mg/kg, Mean, NG 30 mg/kg, Second Formulation (Form 3), 4.00 h, N=4): 231 ng/mL
- concentration at 8 h (both sexes, oral, 30 mg/kg, Mean, NG 30 mg/kg, Second Formulation (Form 3), 8.00 h, N=4): 590 ng/mL
- concentration at 24 h (both sexes, oral, 30 mg/kg, Mean, NG 30 mg/kg, Second Formulation (Form 3), 24.00 h, N=4): 13.6 ng/mL
- concentration at 32 h (both sexes, oral, 30 mg/kg, Mean, NG 30 mg/kg, Second Formulation (Form 3), 32.00 h, N=4): 2.94 ng/mL
- concentration at 0 h [3]: 0 ng/mL
- concentration at 0.25 h [3]: 0.962 ng/mL
- concentration at 0.5 h [3]: 2.82 ng/mL
- concentration at 1 h (both sexes, oral, 30 mg/kg, Median, NG 30 mg/kg, First Formulation (Form 1), 1.00 h, N=4): 10.1 ng/mL
- concentration at 2 h (both sexes, oral, 30 mg/kg, Median, NG 30 mg/kg, First Formulation (Form 1), 2.00 h, N=4): 42.6 ng/mL
- concentration at 4 h (both sexes, oral, 30 mg/kg, Median, NG 30 mg/kg, First Formulation (Form 1), 4.00 h, N=4): 37.6 ng/mL
- concentration at 8 h (both sexes, oral, 30 mg/kg, Median, NG 30 mg/kg, First Formulation (Form 1), 8.00 h, N=4): 31.3 ng/mL
- concentration at 24 h (both sexes, oral, 30 mg/kg, Median, NG 30 mg/kg, First Formulation (Form 1), 24.00 h, N=4): 5.38 ng/mL
- concentration at 32 h (both sexes, oral, 30 mg/kg, Median, NG 30 mg/kg, First Formulation (Form 1), 32.00 h, N=4): 3.75 ng/mL
- concentration at 0 h [4]: 0 ng/mL
- concentration at 0.25 h [4]: 0.256 ng/mL
- concentration at 0.5 h [4]: 2.44 ng/mL
- concentration at 1 h (both sexes, oral, 30 mg/kg, Median, NG 30 mg/kg, Second Formulation (Form 3), 1.00 h, N=4): 9.43 ng/mL
- concentration at 2 h (both sexes, oral, 30 mg/kg, Median, NG 30 mg/kg, Second Formulation (Form 3), 2.00 h, N=4): 58.6 ng/mL
- concentration at 4 h (both sexes, oral, 30 mg/kg, Median, NG 30 mg/kg, Second Formulation (Form 3), 4.00 h, N=4): 194 ng/mL
- concentration at 8 h (both sexes, oral, 30 mg/kg, Median, NG 30 mg/kg, Second Formulation (Form 3), 8.00 h, N=4): 566 ng/mL
- concentration at 24 h (both sexes, oral, 30 mg/kg, Median, NG 30 mg/kg, Second Formulation (Form 3), 24.00 h, N=4): 10 ng/mL
- concentration at 32 h (both sexes, oral, 30 mg/kg, Median, NG 30 mg/kg, Second Formulation (Form 3), 32.00 h, N=4): 1.86 ng/mL
- concentration at 0 h (both sexes, oral, 30 mg/kg, NG 30 mg/kg, First Formulation (Form 1), individual animals): 0 ng/mL
- concentration at 0 h (both sexes, oral, 30 mg/kg, NG 30 mg/kg, Second Formulation (Form 3), individual animals): 0 ng/mL
- concentration at 8 h (both sexes, oral, 30 mg/kg, NG 30 mg/kg, Second Formulation (Form 3), 8.00 h, individual animals): 442 ng/mL
- concentration at 0.08 h [5]: 1440 ng/mL
- concentration at 0.5 h [5]: 664 ng/mL
- concentration at 1 h (intravenous, 2 mg/kg, Mean, dose column 2 mg/kg (title 30 mg/kg), Third Formulation (Form 4), 1.00 h, N=4): 483 ng/mL
- concentration at 2 h (intravenous, 2 mg/kg, Mean, dose column 2 mg/kg (title 30 mg/kg), Third Formulation (Form 4), 2.00 h, N=4): 285 ng/mL
- concentration at 4 h (intravenous, 2 mg/kg, Mean, dose column 2 mg/kg (title 30 mg/kg), Third Formulation (Form 4), 4.00 h, N=4): 114 ng/mL
- concentration at 8 h (intravenous, 2 mg/kg, Mean, dose column 2 mg/kg (title 30 mg/kg), Third Formulation (Form 4), 8.00 h, N=4): 30.7 ng/mL
- concentration at 24 h (intravenous, 2 mg/kg, Mean, dose column 2 mg/kg (title 30 mg/kg), Third Formulation (Form 4), 24.00 h, N=4): 3.57 ng/mL
- concentration at 32 h (intravenous, 2 mg/kg, Mean, dose column 2 mg/kg (title 30 mg/kg), Third Formulation (Form 4), 32.00 h, N=4): 1.48 ng/mL
- concentration at 0.08 h [6]: 1860 ng/mL
- concentration at 0.5 h [6]: 717 ng/mL
- concentration at 1 h (intravenous, 2 mg/kg, dose column 2 mg/kg (title 30 mg/kg), Third Formulation (Form 4), 1.00 h, individual animals): 538 ng/mL
- concentration at 2 h (intravenous, 2 mg/kg, dose column 2 mg/kg (title 30 mg/kg), Third Formulation (Form 4), 2.00 h, individual animals): 332 ng/mL
- concentration at 4 h (intravenous, 2 mg/kg, dose column 2 mg/kg (title 30 mg/kg), Third Formulation (Form 4), 4.00 h, individual animals): 149 ng/mL
- concentration at 0 h [7]: 0 ng/mL
- concentration at 0.25 h [7]: 0 ng/mL
- concentration at 0.5 h [7]: 0 ng/mL
- concentration at 1 h (other: sublingual, 5 mg/kg, Mean, SL, dose column 5 mg/kg (title 30 mg/kg), Fourth Formulation (Form 2), 1.0 h, N=4): 0 ng/mL
- concentration at 2 h (other: sublingual, 5 mg/kg, Mean, SL, dose column 5 mg/kg (title 30 mg/kg), Fourth Formulation (Form 2), 2.0 h, N=4): 0.155 ng/mL
- concentration at 4 h (other: sublingual, 5 mg/kg, Mean, SL, dose column 5 mg/kg (title 30 mg/kg), Fourth Formulation (Form 2), 4.0 h, N=4): 0.114 ng/mL
- concentration at 8 h (other: sublingual, 5 mg/kg, Mean, SL, dose column 5 mg/kg (title 30 mg/kg), Fourth Formulation (Form 2), 8.0 h, N=4): 0.41 ng/mL
- concentration at 24 h (other: sublingual, 5 mg/kg, Mean, SL, dose column 5 mg/kg (title 30 mg/kg), Fourth Formulation (Form 2), 24.0 h, N=4): 0.248 ng/mL
- concentration at 32 h (other: sublingual, 5 mg/kg, Mean, SL, dose column 5 mg/kg (title 30 mg/kg), Fourth Formulation (Form 2), 32.0 h, N=4): 0.0803 ng/mL
- concentration at 0 h [8]: 0 ng/mL
- concentration at 0.25 h [8]: 0 ng/mL
- concentration at 0.5 h [8]: 0 ng/mL
- concentration at 1 h (other: sublingual, 5 mg/kg, Median, SL, dose column 5 mg/kg (title 30 mg/kg), Fourth Formulation (Form 2), 1.0 h, N=4): 0 ng/mL
